The values below come from patent US5103014A, “Certain 3,3'-[[[(2-phenyl-4-thiazolyl)methoxy]phenyl]methylene]dithiobis-propano ic acid derivatives” (American Home Products Corporation, priority 1990, dated 1992).

Read-outs that look alike come from different tables or passages of the source.

Assay [1] relates to 5,12-diHETE synthesis by rat glycogen-elicited polymorphonuclear leukocytes. As to the kind of experiment: Inhibition of 5,12-diHETE synthesis by rat glycogen-elicited polymorphonuclear leukocytes. The assay is classed as cell-based. Conditions: Leukocyte, rat PMN; for IC50: A23187 10 μM, read-out: 50% Inhibitory Concentration (IC50). How it is done: This is especially true with respect to 5,12-diHETE, which is also denoted as LTB4 [see Ford-Hitchinson, J. Roy. Soc. Med., 74, 831 (1981)]. The assay of this Example measures the ability of the compounds of the invention to inhibit the synthesis of 5,12-diHETE by rat glycogen-elicited polymorphonuclear leukocytes.
(§1) Peritoneal PMN are obtained from female Wistar rats (150-250 g) that received an i.p. injection of 6% glycogen (10 ml). After 24 hours, rats are killed by CO2 asphyxiation and peritoneal cells are harvested by peritoneal lavage using Ca^++ and Mg^++ free Hanks' balanced salt solution (HBSS). The peritoneal exudate is centrifuged at 400 g for 10 minutes. After centrifugation, the lavaged fluid is removed and the cell pellet is resuspended in HBSS containing Ca^++ and Mg^++ and 10 mM L-cysteine at a concentration of 2×10^7 cells/ml. To 1 ml portions of cell suspension, test drugs or vehicle are added and incubated at 37° C. for 10 minutes. Following this preincubation, the calcium ionophore (10 μM), A23187, is added together with 0.5 μCi [^14 C] arachidonic acid and further incubated for 10 minutes. The reaction is stopped by the addition of ice cold water (3 ml) and acidification to pH 3.5. Lipoxygenase products are then extracted twice into diethyl ether. The pooled ether extracts are evaporated to dryness under nitrogen and the residue is redissolved in a small volume of methanol and spotted on aluminum backed pre-coated thin layer chromatographic plates. The samples are then co-chromatographed with authentic reference 5,12-diHETE in the solvent system-hexane:ether:acetic acid (50:50:3). After chromatography, the areas associated with 5,12-diHETE standard are identified by autoradiography, cut out and quantitated by liquid scintillation.
Results are expressed as the 50% Inhibitory concentration, or as percent inhibition at a given.

Assay [2] relates to TxB2 synthesis (cyclooxygenase). The experiment in a line: Inhibition of synthesis of cyclooxygenase oxidation product TxB2 (rat polymorphonuclear leukocytes). The assay is classed as cell-based. Conditions: Leukocyte, rat PMN; for IC50: A23187 10 μM, read-out: 50% Inhibitory Concentration (IC50). The protocol:
as §1
The procedure of Example 17 is also employed for the determination of the ability of the compounds of the invention to inhibit the synthesis of the arachidonic acid cyclooxygenase oxidation product TxB2.
In this assay, the procedure of Example 17 is carried out as described. However, in order to determine cyclooxygenase activity, the samples are cochromatographed with authentic reference TxB2 in the solvent system ethyl acetate:formic acid (80:1) and the upper phase of ethyl acetate:isoctane:acetic acid:water (110:50:20:100). After chromatography, the areas associated with TxB2 standard are identified by autoradiography, cut out and quantitated by liquid scintillation techniques.
The results are calculated as in Example 12 and presented below: […]

Assay [3] relates to ovalbumin induced bronchospasm. The experiment in a line: In vivo inhibition of ovalbumin induced bronchospasm in sensitized guinea pigs (endogenous mediators). More on the design: species or system guinea pig. Conditions: 25 mg/kg, intragastrically, 10 minutes before intravenous ovalbumin challenge. The protocol: The assay of this Example measures the in vivo ability of the compounds of the invention to inhibit the bronchospasm induced in guinea pigs by endogenous mediators of the bronchoconstriction.
Male Hartley strain guinea pigs weighing 250-350 g are sensitized to chicken ovalbumin (OA) (10 mg i.p.) on days 1 and 3 and used starting on day 26. The animals are anesthetized with pentobarbital sodium (50 mg/kg, i.p.), bilateral vagotomy is performed, and the jugular vein is cannulated for injection of drugs and the carotid artery for monitoring blood pressure. The trachea is cannulated for artificial ventilation by miniature Starling pump and for indirect measurement of respiratory volume changes as described, infra. Succinylcholine (2 mg/kg, i.v.) is administered to arrest spontaneous respiration. […]
Respiratory volume changes are determined by a calibrated piston whose travel is recorded, via a linear transducer, on a Beckman Dynograph recorder. Maximal bronchoconstrictor volume is determined by clamping off the trachea at the end of the experiment. Overflow volumes at minutes 1, 3 and 5 are obtained from the recorded charts.
Area under the volume overflow curve (AUC) is estimated, using the overflow values at 1, 3 and 5 minutes, and expressed as a percentage of the maximal overflow AUC (equation 1): [formula] […]

Assay [4] has as its system acute inflammatory response (carrageenan paw edema). The experiment in a line: Rat carrageenan paw edema assay. The assay is classed as in vivo. Conditions: po, 50 mg/kg peroral, 1 hour prior to carrageenan, edema at 3 hours. How it is done:
The compounds of the invention are tested in the rat carrageenan paw edema assay to determine their ability to inhibit the acute inflammatory response. 140-180 gm male Sprague-Dawley rats, in groups of 6 animals, are injected subcutaneously in the right paw with 0.1 ml of 1% carrageenan at zero time. Mercury plethysmographic readings (ml) of the paw are made at zero time and 3 hours later. Test compounds are suspended or dissolved in 0.5% methylcellulose and given perorally 1 hour prior to carrageenan administration. The increase in paw volume (edema in ml.) produced by the carrageenan is measured. […] Unpaired Student's t-test is used to determine statistical significance.

In assay [5] the test system is LTD4 induced bronchoconstriction. The experiment in a line: In vivo inhibition of LTD4 induced bronchospasm in guinea pigs (exogenously administered leukotrienes). More on the design: species or system guinea pig. Conditions: 10 minutes before induction of bronchospasm (LTD4); for inhibition in vivo at 25 mg/kg: intraduodenal, intraduodenally.
The target of assay [6] is T1, LTD4 (contraction of isolated guinea pig trachea) (Cavia porcellus, UniProt Q2NNR5).
T1 construct: The tracheal ring is suspended between a glass hook and a force displacement transducer in a 10 ml organ bath; from tissue; host or cells: isolated tracheal rings of male Hartley guinea pigs
T1 sequence (Q2NNR5 1-340): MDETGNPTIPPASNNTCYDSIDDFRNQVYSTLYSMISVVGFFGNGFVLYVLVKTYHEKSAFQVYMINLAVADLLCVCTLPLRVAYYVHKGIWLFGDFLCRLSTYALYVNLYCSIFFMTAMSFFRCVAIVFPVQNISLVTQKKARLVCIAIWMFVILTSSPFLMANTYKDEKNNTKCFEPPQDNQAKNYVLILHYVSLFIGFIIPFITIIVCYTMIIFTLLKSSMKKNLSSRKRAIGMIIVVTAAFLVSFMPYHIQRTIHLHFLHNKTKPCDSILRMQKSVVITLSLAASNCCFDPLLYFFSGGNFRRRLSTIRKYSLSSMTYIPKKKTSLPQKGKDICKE
Conditions: literature value, reference (1); cited from earlier work.

The target in assay [7] is T1, LTD4 (contraction of isolated guinea pig trachea). The experiment in a line: Isolated guinea pig trachea assay, LTD4 antagonist activity. The assay is classed as cell-based. The protocol:
The compounds of the invention are tested in the isolated guinea pig trachea assay to assess their LTD4 antagonist activity. Male Hartley guinea pigs (350-400 g) are euthanized by a blow to the head, the neck is opened and the trachea removed. The trachea is maintained in aerated physiological salt solution, cleared of connective tissue and fat and cut into rings approximately 2 mm in width (usually containing two cartilaginous segments per ring). Two pieces of silk suture are then passed through the lumen of the tracheal ring and are tied around the cartilage, one on each side of the trachealis muscle. The tracheal ring is suspended between a glass hook and a force displacement transducer in a 10 ml organ bath for measurement of isometric tension. Tissues are maintained at 37° C. in aerated (95% O2 /5% CO2) physiological salt solution of the following composition: […] The tracheal rings are maintained at 2 g resting tension and equilibrated for 45 minutes (with frequent washing and readjustment of resting tension). The tracheal rings are first contracted by the addition of carbachol (3×10^-6 M), to determine tissue responsiveness and establish a reference contraction. On attainment of a stable level of contraction (approximately 30 minutes), the tissues are washed several times until baseline tension has been restored and then re-equilibrated for 30 minutes. The tissues are then incubated for 45 minutes with a test antagonist (either 1×10^-6 M or 1×10^-5 M) or 10 μl of an appropriate solvent control (control, non-treated). One tissue in each group serves as the control. Twenty minutes prior to the construction of the LTD4 cumulative concentration-response curve, L-[…]×10^-2 M final bath concentration) is added to inhibit bioconversion of LTD4 to LTE4. Only one LTD4 concentration-response curve is constructed in each tissue. All responses to LTD4 are calculated as a percentage of the reference contraction to carbachol. LTD4 antagonist activity is determined by comparison of the concentration response curves of LTD4 in the presence and absence of antagonist. Assessment of the relative rightward shift of the antagonist treated curve relative to the solvent (control) treated tissue is calculated as a concentration ratio (Eq. A) and used in subsequent calculations to derive an antagonist pKB value (Eqs B&C). In the event that the maximum response to LTD4 is depressed, the EC50 for that particular curve is determined, an "apparent" pKB reported, and the compound reported as "not-competitive."

Setting [8] is: reference compounds, LTD4 concentration-response curve, read-out: pKB (converted).

`O=S(=O)(Nc1cccc(OCc2csc(-c3ccccc3)n2)c1)C(F)(F)F` [Example 3, 1,1,1-Trifluoro-N-[3-[(2-phenyl-4-thiazolyl)methoxy]phenyl]methanesulfonamide]: the IC50 in assay [1] came to 3200 nM; in assay [2] it was 1700 nM. Also, the % Inhibition (usually the relative decrease from the control value, in per cent) in assay [3] is 10%. For the same compound, testing at 50 mg/kg in assay [4] gave an inhibition in vivo of 51%. Further, the median effective dose (ED50) (as a rule, the dose that gives a 50% effect, or the effect in half of the subjects) in assay [5] (Cavia porcellus, intragastrically, read-out: ED50) is 2.4 mg/kg; in assay [5] (intragastrically), 3.0 mg/kg.
Turning to `O=S(=O)(Nc1cccc(OCc2ccc3ccccc3n2)c1)C(F)(F)F` [Wy-48,252, reference compound], the “pKB (Reference)” value in assay [6] is reported as 7.70. The Kb is 83.2 nM in assay [7] (antagonist concentration 1 × 10^-6 M, read-out: pKB ± S.E. (converted)) and 36.3 nM in assay [7] (setting [8]).
Turning to `O=S(=O)(Nc1cccc(OCc2csc(-c3ccc(F)cc3)n2)c1)C(F)(F)F` [Example 9B, 1,1,1-Trifluoro-N-[3-[[2-(4-fluorophenyl)-4-thiazolyl]methoxy]phenyl]methanesulfonamide], the results for the inhibition at 10 µM in assay [1] (10 μM) and in assay [2] (10 μM) were 64% and 32%, respectively. In addition, the inhibition in vivo (usually the drop in the measured response relative to a control, in per cent) at 50 mg/kg in assay [4] came out at 55%. This compound also showed an inhibition in vivo at 25 mg/kg in assay [5] (Cavia porcellus) of 100%. For the same compound, in assay [5] (Cavia porcellus, po, 10 mg/kg, intragastrically), the inhibition in vivo at 10 mg/kg stood at 92%.
`CCCc1c(OCCCCc2nn[nH]n2)ccc(C(C)=O)c1O` [LY-171,883, reference compound]: in assay [6], the “pKB (Reference)” value is recorded as 6.65. The Kb in assay [7] (setting [8]) was 126 nM.
On to `O=S(=O)(Nc1cccc(OCc2csc(-c3ccc(Cl)cc3)n2)c1)C(F)(F)F` [Example 9A, 1,1,1-Trifluoro-N-[3-[[2-(4-chlorophenyl)-4-thiazolyl]methoxy]phenyl]methanesulfonamide], for which the results for the IC50 in assay [1] and in assay [2] were 5200 nM and 7100 nM, respectively. This compound displayed an inhibition in vivo at 50 mg/kg in assay [4] of 60%. In assay [5] (Cavia porcellus), the inhibition in vivo at 25 mg/kg stood at 54%.
